Measurements: patent publication US20200222418A1, “USE OF PHENOTHIAZINE DERIVATIVE IN THE TREATMENT OF INFECTION CAUSED BY BACTERIA CARRYING TYPE IV PILI” (priority 2017, published 2020)

How the values were obtained:
[1] = system: meningococcal colonization of the human dermal vasculature; test: In vivo meningococcal infection of mice engrafted with human skin
[2] = system: Nm2C4.3 microcolonies on HBMEC, human bone marrow endothelial cell line; test: Dispersion of meningococcal microcolonies on HBMEC (vascular colonisation index); assay type: cell-based, Neisseria meningitidis; conditions: 30 min, Trifluoperazine 10-40 μM, Gentamicin 150 μg/ml, Cefotaxim 20 μg/ml
Method: Human […] microvascular endothelial cells (HBMEC) were infected with Nm2C4.3 for 1 h 30, treated with Trifluoperazine (10-40 μM) for 30 minutes, before fixation and immunofluorescence analysis using anti-Nm2C4.3 antibody and Alexa Fluor 633 Phalloidin. (A) Representative fluorescence microscopy showing bacterial colony (white dots) formed at the surface of the endothelial cells. (B) Quantification of the bacterial colonization was performed using Image J software.
HBMEC, a human endothelial cell line isolated from […] capillaries (Schweitzer et al., 1997) were grown in Dulbecco's Modified Eagle Medium (DMEM) 4.5 g/L-Glutamax (ThermoFischer) 10% FBS. Cells were grown on Thermanox coverslips coated with gelatin 2% (BD Difco #214340) for 2 days to reach confluency. Cells were then infected with a suspension of Nm2C4.3 (˜10^7 CFU/ml) in DMEM/FBS during 30 minutes to allow bacterial adhesion. Cells were then washed three times with medium to remove non-adherent bacteria and infection was pursued for 1 h 30: adherent bacteria grew at the endothelial cell surface and formed micro-colonies. Trifluoperazine was then added to obtain final concentrations of 10, 20, 30 and 40 μM. After incubation for 30 minutes, cells were washed and fixed in 4% Paraformaldehyde for 10 min, washed three times with PBS, and permeabilized with 0.1% Triton X-100 in PBS for 10 min. Cells were blocked for 30 min with 3% BSA in PBS and were incubated for 2 h with the primary antibodies (Rabbit polyclonal anti-Nm2C4.3 strain, kindly provided by Dr X. Nassif, INEM, Paris). After three washes with PBS, cells were incubated for 1 h with […] anti-rabbit IgG (Jackson ImmunoResearch Laboratories), together with Alexa Fluor 633 Phalloidin (Thermofischer) and DAPI ([…], Sigma Aldrich) to stain Actin and nuclei, respectively. Labelled preparations were mounted in Glycergel media (DAKO) and image acquisitions were performed with a DM16000 microscope (Leica, X40). Quantification was done with ImageJ software (NIH). […]

[3] = system: N. meningitidis 2C4.3 aggregates; assay type: cell-based, Neisseria meningitidis; conditions: for effect on dispersion of meningococcal aggregates: 0.5 to 80 μM, 30 min
Method: N. meningitidis 2C4.3 was grown in liquid culture at 10^7 CFU/ml for 2 h to form bacterial aggregates and were treated with increasing concentrations of Trifluoperazine (10 to 40 μM), Gentamicin (150 μg/ml) or cefotaxim (20 μg/ml) for 20 minutes and bacterial aggregates were immediately visualized using a phase-contrast microscope. […] (B) Quantification of the bacterial aggregation was performed using Image J software.
N. meningitidis 2C4.3 wild type strain and the isogenic derivative mutant PilT ([…]PiIT) were grown in liquid culture at 10^7 CFU/ml for 2 h to form bacterial aggregates and then treated with 50 μM Trifluoperazine. Time lapse phase-contrast video microscopy was performed to visualize the effect on bacterial aggregates over time. Images were taken at the indicated time points of the video.
N. meningitidis 2C4.3 was grown in liquid culture at 10^7 CFU/ml for 2 h to form bacterial aggregates and were treated with 30 μM Trifluoperazine for 30 minutes to induce bacterial dispersion or PBS as a control. The medium was replaced to remove the Trifluoperazine and the reformation of bacterial aggregates were visualized overtime using a phase-contrast microscope.
Bacteria were grown in suspension for 2 h then Phenothiazine derivatives were added at the indicated concentrations.
N. meninigitidis 2C4.3 strain was grown in suspension in wells of a 24 well plate, containing 1 ml of DMEM medium supplemented with 10% heat-inactivated fetal calf serum. After 2 h of growth, Trifluoperazine (or control vehicle) was added at various concentrations ranging from 10 to 40 μM for 20 min and the bacterial aggregates were visualized over time using a phase-contrast microscope.
N. meninigitidis 2C4.3 strain was grown in suspension in wells of a 24 well plate, containing 1 ml of DMEM medium supplemented with 10% heat-inactivated fetal calf serum. After 2 h of growth, various concentrations (0.5 to 80 μM) of phenothiazine-derivative compounds or control vehicle (PBS or DMSO) were added to the wells for 30 min and the bacterial aggregates were visualized using a phase-contrast microscope. Were tested phenothiazine-derivative compounds of: • the Piperazine group: Trifluoperazine (Sigma #T8516), Fluphenazine (Sigma #F4765), Prochlorperazine (Sigma #P9178) Perphenazine (Sigma #P6402); • the Piperidine group: Thioridazine (Sigma #T9025) and Mesoridazin (Sigma #M4068); • the Aliphatic group: Chlorpromazine (Sigma #C8138), Promazine (Sigma #P6656), Triflupromazine (Sigma #1686003) and levomepromazine (Sigma #L0500000).

Compound: CO/N=C(\C(=O)N[C@@H]1C(=O)N2C(C(=O)O)=C(COC(C)=O)CS[C@H]12)c1csc(N)n1 [Cefotaxim]
- increase of inflammatory response [1]: 2 fold
- dispersion of compact meningococcal microcolonies established at the endothelial cell surface [2]: poorly induced the dispersion
- dispersion of bacterial aggregates formed in suspension ([3]; aggregates pre-formed 2 h, 20 min, Trifluoperazine 10-40 μM, Gentamicin 150 μg/ml, Cefotaxim 20 μg/ml): did not significantly induce the dispersion

Compound: CN(C)CCCN1c2ccccc2Sc2ccc(Cl)cc21 [Chlorpromazine]
- effect on dispersion of meningococcal aggregates [3]: no effects

Compound: COc1ccc2c(c1)N(C[C@H](C)CN(C)C)c1ccccc1S2 [Levomepromazine]
- effect on dispersion of meningococcal aggregates [3]: no effects

Compound: CN(C)CCCN1c2ccccc2Sc2ccccc21 [Promazine]
- effect on dispersion of meningococcal aggregates [3]: inhibited bacterial aggregation with better efficacy than Trifluoperazine

Compound: CN(C)CCCN1c2ccccc2Sc2ccc(C(F)(F)F)cc21 [Triflupromazine]
- effect on dispersion of meningococcal aggregates [3]: no effects
